From PubChem BioAssay (NCI)
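Method: 48-hour compound exposure of cells in 96-well plates, five concentrations, linear interpolation of endpoints. GI50 = concentration required for 50% inhibition of growth. Definition used: TGI = concentration required for complete inhibition of growth.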

What was measured:
Assay in all cases: growth of human tumour cells (NCI), 48 h
[1] = tested on: RXF 393 renal
[2] = tested on: MOLT-4 leukemia
[3] = tested on: HCC-2998 colon
[4] = tested on: ACHN renal
[5] = tested on: MALME-3M melanoma
[6] = tested on: A498 renal
[7] = tested on: SNB-19 CNS
[8] = tested on: CAKI-1 renal
[9] = tested on: LOX IMVI melanoma
[10] = tested on: NCI-H23 lung
[11] = tested on: SR leukemia
[12] = tested on: EKVX NSCLC

With `Cc1c(Cl)c(S(N)(=O)=O)cc(S(N)(=O)=O)c1NC(=O)c1ccc(Cl)cc1` the TGI [1] was over 100 µM, the TGI [2] was over 100 µM and the TGI [3] was over 100 µM. It also gave a TGI [4] of over 100 µM, a TGI [5] of over 100 µM and a TGI [6] of over 100 µM. The TGI [7] was over 100 µM, the TGI [8] was over 100 µM and the TGI [9] was over 100 µM. It also gave a TGI [10] of over 100 µM.

In the case of `CC1(C)[C@@H]2C[C@H]1C(Cc1ccccc1C[C@H]1c3cc(-c4ccccn4)ncc3[C@H]3C[C@@H]1C3(C)C)c1cc(-c3ccccn3)ncc12` (stereo partly specified), the TGI [1] is reported as over 25.1 µM, the TGI [2] is reported as 1.23 µM and the TGI [3] is reported as 39.8 µM. For the same compound, the TGI [4] was 4.83 µM, the TGI [11] was 1.28 µM and the TGI [5] was over 100 µM. The TGI [6] was 4.89 µM, the TGI [7] was over 100 µM and the TGI [12] was over 100 µM. For the same compound, the TGI [8] was over 40.8 µM, the TGI [9] was 1.48 µM and the TGI [10] was over 100 µM.

`C/C=C1/CN2CC[C@@H]3c4ccccc4N4[C@H](C(=O)OC)[C@H]1C[C@H]2[C@]34/C=C/C1=COC[C@@H]2[C@H]1C[C@H]1c3c(c4ccccc4n3C)C[C@@H]2N1C` showed a TGI [1] of 7.9 µM, a TGI [2] of 13.4 µM and a TGI [3] of 1.31 µM. It also gave a TGI [4] of 7.43 µM, a TGI [11] of 19.3 µM and a TGI [5] of 8.5 µM. It also gave a TGI [6] of 10 µM, a TGI [7] of 7.39 µM and a TGI [12] of 6.17 µM. For the same compound, the TGI [8] was 7.89 µM, the TGI [9] was 8.74 µM and the TGI [10] was 8.43 µM.

`Nc1nc(SCCC/C=C/B(O)O)nc2c1ncn2C1OC(CO)C(O)C1O` (stereo unspecified) gave a TGI [1] of over 243 µM, a TGI [2] of over 243 µM and a TGI [3] of over 243 µM. It also gave a TGI [4] of over 243 µM, a TGI [11] of over 243 µM and a TGI [5] of over 243 µM. The TGI [6] was over 243 µM, the TGI [7] was over 243 µM and the TGI [12] was over 243 µM. The TGI [9] was over 243 µM and the TGI [10] was over 243 µM.

`COc1cc2c(cc1OC)C(C1(O)CCCCC1)NCC2` (stereo unspecified) gave a TGI [1] of over 100 µM, a TGI [2] of over 100 µM and a TGI [3] of over 100 µM. It also gave a TGI [4] of over 100 µM, a TGI [11] of over 100 µM and a TGI [5] of over 100 µM. The TGI [12] was over 100 µM, the TGI [9] was over 100 µM and the TGI [10] was over 100 µM.

`O=[N+]([O-])/C=C/c1cccc(F)c1` showed a TGI [1] of 4.32 µM, a TGI [3] of 31.6 µM and a TGI [4] of 6.84 µM. The TGI [5] was 32.5 µM, the TGI [6] was 27.4 µM and the TGI [7] was 29.7 µM. For the same compound, the TGI [12] was 7.45 µM, the TGI [8] was 29.9 µM and the TGI [9] was over 100 µM. For the same compound, the TGI [10] was 17.9 µM.

`Nc1nc(Cl)cc(NCCCCO)n1` gave a TGI [1] of over 100 µM, a TGI [2] of over 100 µM and a TGI [3] of over 100 µM. It also gave a TGI [4] of over 100 µM, a TGI [11] of over 100 µM and a TGI [5] of over 100 µM. It also gave a TGI [6] of over 100 µM, a TGI [7] of over 100 µM and a TGI [12] of over 100 µM. The TGI [9] was over 100 µM and the TGI [10] was over 100 µM.

Work on `CC(=O)O[C@H]1CC[C@]2(C)[C@H]3C(=O)C=C4[C@@H]5C[C@](C)(C(=O)N6CCCNCC6)CC[C@]5(C)CC[C@@]4(C)[C@]3(C)CC[C@H]2C1(C)C` yielded a GI50 [1] of 1660 nM, a TGI [1] of 3.24 µM and a GI50 [4] of 1660 nM. The TGI [4] was 3.02 µM, the GI50 [5] was 1800 nM and the TGI [5] was 3.47 µM. It also gave a GI50 [6] of 1710 nM, a TGI [6] of 3.1 µM and a GI50 [12] of 1670 nM. For the same compound, the TGI [12] was 3.15 µM, the GI50 [8] was 1430 nM and the TGI [8] was 2.79 µM. It also gave a GI50 [10] of 1730 nM and a TGI [10] of 3.37 µM.

For `C#CCCCCC#CC1CCCC1C1=CC(=O)c2ccccc21` (stereo unspecified), the TGI [1] was 18.4 µM, the TGI [2] was over 100 µM and the TGI [3] was 25.2 µM. It also gave a TGI [4] of 19.9 µM, a TGI [11] of over 100 µM and a TGI [5] of 20.1 µM. The TGI [6] was 28.3 µM, the TGI [7] was 28.8 µM and the TGI [12] was 28 µM. The TGI [9] was 13.9 µM and the TGI [10] was 24.5 µM.

Compound `O=C(N/N=C/c1cc(Br)cc(Br)c1[O-])c1ccccc1O.O=C(N/N=C/c1cc(Br)cc(Br)c1[O-])c1ccccc1O.[Cl-].[Fe+3]` has a TGI [1] of 6.39 µM, a TGI [2] of over 100 µM and a TGI [3] of 5.65 µM. It also gave a TGI [4] of 18.3 µM, a TGI [11] of 5.68 µM and a TGI [7] of 21.3 µM. The TGI [12] was 27.8 µM, the TGI [8] was 18.2 µM and the TGI [9] was 15.5 µM.

For `CN[C@@H]1[C@H](O)[C@H](NC)[C@H]2O[C@@]3(O)C(=O)C[C@@H](C)O[C@H]3O[C@@H]2[C@H]1O`, the TGI [1] was over 100 µM, the TGI [2] was over 100 µM and the TGI [3] was over 100 µM. The TGI [4] was over 100 µM, the TGI [11] was over 100 µM and the TGI [5] was over 100 µM. The TGI [6] was over 100 µM, the TGI [7] was over 100 µM and the TGI [12] was over 100 µM. The TGI [8] was over 100 µM, the TGI [9] was over 100 µM and the TGI [10] was over 100 µM.
